Test results reported in the kinase profiling compilation of Christmann-Franck et al. (2016).

test system: RET (human), P07949 [M918T]; assay: KINOMEscan competition binding; conditions: compound 10.0 µM

Structure (SMILES)	kinase still bound, per cent of control [%]
CCN1CCN(Cc2ccc(NC(=O)c3ccc(C)c(/C=C/c4cnc(Nc5cc(N6CCNCC6)nc(C)n5)cn4)c3)cc2C(F)(F)F)CC1	0.2
CCOc1cc(N2CCC(N3CCCCC3)CC2)ccc1Nc1nc(Nc2ccccc2S(=O)(=O)C(C)C)c2cn[nH]c2n1	100
CCN1CCN(Cc2ccc(NC(=O)c3ccc(C)c(Oc4ccnc5[nH]ccc45)c3)cc2C(F)(F)F)CC1	0

biological target: TNNI3K (human) (UniProt Q59H18); assay: KINOMEscan competition binding; conditions: compound 10.0 µM

Structure (SMILES)	kinase still bound, per cent of control [%]
CCN1CCN(Cc2ccc(NC(=O)c3ccc(C)c(/C=C/c4cnc(Nc5cc(N6CCNCC6)nc(C)n5)cn4)c3)cc2C(F)(F)F)CC1	12
COc1cc(N2CCC(N3CCN(C)CC3)CC2)ccc1Nc1ncc(Cl)c(Nc2ccccc2S(=O)(=O)C(C)C)n1	15
CCOc1cc(N2CCC(N3CCCCC3)CC2)ccc1Nc1nc(Nc2ccccc2S(=O)(=O)C(C)C)c2cn[nH]c2n1	100
CCN1CCN(Cc2ccc(NC(=O)c3ccc(C)c(Oc4ccnc5[nH]ccc45)c3)cc2C(F)(F)F)CC1	4.8

biological target: IRAK3 (human) (UniProt Q9Y616); assay: KINOMEscan competition binding; conditions: compound 10.0 µM
Sequence (Q9Y616 whole entry, looked up): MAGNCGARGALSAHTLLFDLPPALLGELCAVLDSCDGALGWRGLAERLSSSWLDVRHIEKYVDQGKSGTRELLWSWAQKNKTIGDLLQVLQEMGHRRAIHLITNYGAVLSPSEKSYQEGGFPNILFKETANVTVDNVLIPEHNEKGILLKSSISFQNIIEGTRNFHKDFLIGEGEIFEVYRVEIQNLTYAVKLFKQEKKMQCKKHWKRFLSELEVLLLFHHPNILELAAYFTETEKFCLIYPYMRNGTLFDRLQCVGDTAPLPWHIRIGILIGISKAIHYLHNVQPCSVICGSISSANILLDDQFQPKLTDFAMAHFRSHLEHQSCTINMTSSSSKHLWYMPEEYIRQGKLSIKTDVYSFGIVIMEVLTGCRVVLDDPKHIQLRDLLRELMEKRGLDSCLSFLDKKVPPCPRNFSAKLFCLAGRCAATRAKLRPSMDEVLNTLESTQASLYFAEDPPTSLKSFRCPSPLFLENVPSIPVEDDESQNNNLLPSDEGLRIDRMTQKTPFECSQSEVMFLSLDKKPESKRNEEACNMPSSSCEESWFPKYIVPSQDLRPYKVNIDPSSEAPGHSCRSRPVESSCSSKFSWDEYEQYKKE

Structure (SMILES)	kinase still bound, per cent of control [%]
CCN1CCN(Cc2ccc(NC(=O)c3ccc(C)c(/C=C/c4cnc(Nc5cc(N6CCNCC6)nc(C)n5)cn4)c3)cc2C(F)(F)F)CC1	87
COc1cc(N2CCC(N3CCN(C)CC3)CC2)ccc1Nc1ncc(Cl)c(Nc2ccccc2S(=O)(=O)C(C)C)n1	0.15
CCOc1cc(N2CCC(N3CCCCC3)CC2)ccc1Nc1nc(Nc2ccccc2S(=O)(=O)C(C)C)c2cn[nH]c2n1	100

biological target: MYLK2 (human) (UniProt Q9H1R3); assay: KINOMEscan competition binding; conditions: compound 10.0 µM

Structure (SMILES)	kinase still bound, per cent of control [%]
CCN1CCN(Cc2ccc(NC(=O)c3ccc(C)c(/C=C/c4cnc(Nc5cc(N6CCNCC6)nc(C)n5)cn4)c3)cc2C(F)(F)F)CC1	3.8
COc1cc(N2CCC(N3CCN(C)CC3)CC2)ccc1Nc1ncc(Cl)c(Nc2ccccc2S(=O)(=O)C(C)C)n1	40
CCOc1cc(N2CCC(N3CCCCC3)CC2)ccc1Nc1nc(Nc2ccccc2S(=O)(=O)C(C)C)c2cn[nH]c2n1	100
CCN1CCN(Cc2ccc(NC(=O)c3ccc(C)c(Oc4ccnc5[nH]ccc45)c3)cc2C(F)(F)F)CC1	8.4

biological target: EPHB1 (human) (UniProt P54762); assay: KINOMEscan competition binding; conditions: compound 10.0 µM

Structure (SMILES)	kinase still bound, per cent of control [%]
CCN1CCN(Cc2ccc(NC(=O)c3ccc(C)c(/C=C/c4cnc(Nc5cc(N6CCNCC6)nc(C)n5)cn4)c3)cc2C(F)(F)F)CC1	16
COc1cc(N2CCC(N3CCN(C)CC3)CC2)ccc1Nc1ncc(Cl)c(Nc2ccccc2S(=O)(=O)C(C)C)n1	0.1
CCOc1cc(N2CCC(N3CCCCC3)CC2)ccc1Nc1nc(Nc2ccccc2S(=O)(=O)C(C)C)c2cn[nH]c2n1	100

biological target: MAP3K12 (human) (UniProt Q12852); assay: KINOMEscan competition binding; conditions: compound 10.0 µM

Structure (SMILES)	kinase still bound, per cent of control [%]
CCN1CCN(Cc2ccc(NC(=O)c3ccc(C)c(/C=C/c4cnc(Nc5cc(N6CCNCC6)nc(C)n5)cn4)c3)cc2C(F)(F)F)CC1	18
COc1cc(N2CCC(N3CCN(C)CC3)CC2)ccc1Nc1ncc(Cl)c(Nc2ccccc2S(=O)(=O)C(C)C)n1	0
CCOc1cc(N2CCC(N3CCCCC3)CC2)ccc1Nc1nc(Nc2ccccc2S(=O)(=O)C(C)C)c2cn[nH]c2n1	100

biological target: JAK3 JH1 catalytic (human) (UniProt P52333); assay: KINOMEscan competition binding; conditions: compound 10.0 µM

Structure (SMILES)	kinase still bound, per cent of control [%]
CCN1CCN(Cc2ccc(NC(=O)c3ccc(C)c(/C=C/c4cnc(Nc5cc(N6CCNCC6)nc(C)n5)cn4)c3)cc2C(F)(F)F)CC1	3.2
COc1cc(N2CCC(N3CCN(C)CC3)CC2)ccc1Nc1ncc(Cl)c(Nc2ccccc2S(=O)(=O)C(C)C)n1	2
CCOc1cc(N2CCC(N3CCCCC3)CC2)ccc1Nc1nc(Nc2ccccc2S(=O)(=O)C(C)C)c2cn[nH]c2n1	84
CCN1CCN(Cc2ccc(NC(=O)c3ccc(C)c(Oc4ccnc5[nH]ccc45)c3)cc2C(F)(F)F)CC1	11

biological target: RPS6KA4 KD2 (human) (UniProt O75676); assay: KINOMEscan competition binding; conditions: compound 10.0 µM
Sequence (O75676 whole entry, looked up): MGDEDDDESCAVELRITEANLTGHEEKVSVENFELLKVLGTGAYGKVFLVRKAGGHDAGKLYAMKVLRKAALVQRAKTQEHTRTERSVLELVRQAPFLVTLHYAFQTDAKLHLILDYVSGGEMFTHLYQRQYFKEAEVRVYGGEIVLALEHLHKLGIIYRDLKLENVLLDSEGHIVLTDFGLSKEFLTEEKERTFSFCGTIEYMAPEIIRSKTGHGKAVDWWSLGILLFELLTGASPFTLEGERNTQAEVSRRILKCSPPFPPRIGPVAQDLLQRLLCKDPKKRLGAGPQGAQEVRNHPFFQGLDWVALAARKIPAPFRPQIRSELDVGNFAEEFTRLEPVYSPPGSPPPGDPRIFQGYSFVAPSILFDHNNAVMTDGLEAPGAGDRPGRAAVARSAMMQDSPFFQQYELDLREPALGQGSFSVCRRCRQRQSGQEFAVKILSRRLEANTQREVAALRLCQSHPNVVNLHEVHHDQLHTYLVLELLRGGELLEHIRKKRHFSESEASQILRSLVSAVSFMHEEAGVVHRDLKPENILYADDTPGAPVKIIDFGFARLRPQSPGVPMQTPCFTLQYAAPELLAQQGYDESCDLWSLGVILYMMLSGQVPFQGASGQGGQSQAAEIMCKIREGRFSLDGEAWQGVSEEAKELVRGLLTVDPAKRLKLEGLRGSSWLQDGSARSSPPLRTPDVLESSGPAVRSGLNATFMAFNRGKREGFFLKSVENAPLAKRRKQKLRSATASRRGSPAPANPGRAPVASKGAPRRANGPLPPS

Structure (SMILES)	kinase still bound, per cent of control [%]
CCN1CCN(Cc2ccc(NC(=O)c3ccc(C)c(/C=C/c4cnc(Nc5cc(N6CCNCC6)nc(C)n5)cn4)c3)cc2C(F)(F)F)CC1	43
COc1cc(N2CCC(N3CCN(C)CC3)CC2)ccc1Nc1ncc(Cl)c(Nc2ccccc2S(=O)(=O)C(C)C)n1	40
CCOc1cc(N2CCC(N3CCCCC3)CC2)ccc1Nc1nc(Nc2ccccc2S(=O)(=O)C(C)C)c2cn[nH]c2n1	97

biological target: PIK3CA (human) (UniProt P42336); assay: KINOMEscan competition binding; conditions: compound 10.0 µM

Structure (SMILES)	kinase still bound, per cent of control [%]
CCN1CCN(Cc2ccc(NC(=O)c3ccc(C)c(/C=C/c4cnc(Nc5cc(N6CCNCC6)nc(C)n5)cn4)c3)cc2C(F)(F)F)CC1	92
COc1cc(N2CCC(N3CCN(C)CC3)CC2)ccc1Nc1ncc(Cl)c(Nc2ccccc2S(=O)(=O)C(C)C)n1	40
CCOc1cc(N2CCC(N3CCCCC3)CC2)ccc1Nc1nc(Nc2ccccc2S(=O)(=O)C(C)C)c2cn[nH]c2n1	99

biological target: MAPK14 (human) (UniProt Q16539); assay: KINOMEscan competition binding; conditions: compound 10.0 µM
Sequence (Q16539 whole entry, looked up): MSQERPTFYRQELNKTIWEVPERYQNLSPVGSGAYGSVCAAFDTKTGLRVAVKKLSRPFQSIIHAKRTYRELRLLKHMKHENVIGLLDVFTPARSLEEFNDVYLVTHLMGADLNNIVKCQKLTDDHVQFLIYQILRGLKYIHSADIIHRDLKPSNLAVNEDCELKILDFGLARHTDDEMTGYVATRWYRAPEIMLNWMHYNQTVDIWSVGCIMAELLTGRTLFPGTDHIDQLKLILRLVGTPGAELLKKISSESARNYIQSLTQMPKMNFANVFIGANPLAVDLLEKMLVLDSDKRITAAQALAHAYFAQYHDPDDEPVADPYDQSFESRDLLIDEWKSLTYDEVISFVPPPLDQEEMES

Structure (SMILES)	kinase still bound, per cent of control [%]
CCN1CCN(Cc2ccc(NC(=O)c3ccc(C)c(/C=C/c4cnc(Nc5cc(N6CCNCC6)nc(C)n5)cn4)c3)cc2C(F)(F)F)CC1	4.6
COc1cc(N2CCC(N3CCN(C)CC3)CC2)ccc1Nc1ncc(Cl)c(Nc2ccccc2S(=O)(=O)C(C)C)n1	40
CCOc1cc(N2CCC(N3CCCCC3)CC2)ccc1Nc1nc(Nc2ccccc2S(=O)(=O)C(C)C)c2cn[nH]c2n1	98
CCN1CCN(Cc2ccc(NC(=O)c3ccc(C)c(Oc4ccnc5[nH]ccc45)c3)cc2C(F)(F)F)CC1	0

biological target: CDK17 (human) (UniProt Q00537); assay: KINOMEscan competition binding; conditions: compound 10.0 µM

Structure (SMILES)	kinase still bound, per cent of control [%]
CCN1CCN(Cc2ccc(NC(=O)c3ccc(C)c(/C=C/c4cnc(Nc5cc(N6CCNCC6)nc(C)n5)cn4)c3)cc2C(F)(F)F)CC1	60
COc1cc(N2CCC(N3CCN(C)CC3)CC2)ccc1Nc1ncc(Cl)c(Nc2ccccc2S(=O)(=O)C(C)C)n1	9.9
CCOc1cc(N2CCC(N3CCCCC3)CC2)ccc1Nc1nc(Nc2ccccc2S(=O)(=O)C(C)C)c2cn[nH]c2n1	100
CCN1CCN(Cc2ccc(NC(=O)c3ccc(C)c(Oc4ccnc5[nH]ccc45)c3)cc2C(F)(F)F)CC1	0.1

biological target: PIK3C2B (human) (UniProt O00750); assay: KINOMEscan competition binding; conditions: compound 10.0 µM

Structure (SMILES)	kinase still bound, per cent of control [%]
CCN1CCN(Cc2ccc(NC(=O)c3ccc(C)c(/C=C/c4cnc(Nc5cc(N6CCNCC6)nc(C)n5)cn4)c3)cc2C(F)(F)F)CC1	79
COc1cc(N2CCC(N3CCN(C)CC3)CC2)ccc1Nc1ncc(Cl)c(Nc2ccccc2S(=O)(=O)C(C)C)n1	40
CCOc1cc(N2CCC(N3CCCCC3)CC2)ccc1Nc1nc(Nc2ccccc2S(=O)(=O)C(C)C)c2cn[nH]c2n1	100

biological target: CDK7 (human) (UniProt P50613); assay: KINOMEscan competition binding; conditions: compound 10.0 µM
Sequence (P50613 whole entry, looked up): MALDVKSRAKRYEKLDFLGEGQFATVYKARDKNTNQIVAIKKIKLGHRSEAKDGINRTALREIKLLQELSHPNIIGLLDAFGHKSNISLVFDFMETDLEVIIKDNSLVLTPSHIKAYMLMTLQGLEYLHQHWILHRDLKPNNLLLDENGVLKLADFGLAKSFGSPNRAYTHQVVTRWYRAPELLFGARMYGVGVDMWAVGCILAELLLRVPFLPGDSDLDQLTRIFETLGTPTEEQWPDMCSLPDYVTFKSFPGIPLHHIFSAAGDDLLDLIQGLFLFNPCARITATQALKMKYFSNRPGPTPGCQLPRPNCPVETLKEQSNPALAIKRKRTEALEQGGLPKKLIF

Structure (SMILES)	kinase still bound, per cent of control [%]
CCN1CCN(Cc2ccc(NC(=O)c3ccc(C)c(/C=C/c4cnc(Nc5cc(N6CCNCC6)nc(C)n5)cn4)c3)cc2C(F)(F)F)CC1	3
COc1cc(N2CCC(N3CCN(C)CC3)CC2)ccc1Nc1ncc(Cl)c(Nc2ccccc2S(=O)(=O)C(C)C)n1	0.15
CCOc1cc(N2CCC(N3CCCCC3)CC2)ccc1Nc1nc(Nc2ccccc2S(=O)(=O)C(C)C)c2cn[nH]c2n1	42
CCN1CCN(Cc2ccc(NC(=O)c3ccc(C)c(Oc4ccnc5[nH]ccc45)c3)cc2C(F)(F)F)CC1	2.4

biological target: SRPK2 (human) (UniProt P78362); assay: KINOMEscan competition binding; conditions: compound 10.0 µM

Structure (SMILES)	kinase still bound, per cent of control [%]
CCN1CCN(Cc2ccc(NC(=O)c3ccc(C)c(/C=C/c4cnc(Nc5cc(N6CCNCC6)nc(C)n5)cn4)c3)cc2C(F)(F)F)CC1	100
COc1cc(N2CCC(N3CCN(C)CC3)CC2)ccc1Nc1ncc(Cl)c(Nc2ccccc2S(=O)(=O)C(C)C)n1	12
CCOc1cc(N2CCC(N3CCCCC3)CC2)ccc1Nc1nc(Nc2ccccc2S(=O)(=O)C(C)C)c2cn[nH]c2n1	100

biological target: FLT3 (human) (UniProt P36888); assay: KINOMEscan competition binding; conditions: compound 10.0 µM
Sequence (P36888 whole entry, looked up): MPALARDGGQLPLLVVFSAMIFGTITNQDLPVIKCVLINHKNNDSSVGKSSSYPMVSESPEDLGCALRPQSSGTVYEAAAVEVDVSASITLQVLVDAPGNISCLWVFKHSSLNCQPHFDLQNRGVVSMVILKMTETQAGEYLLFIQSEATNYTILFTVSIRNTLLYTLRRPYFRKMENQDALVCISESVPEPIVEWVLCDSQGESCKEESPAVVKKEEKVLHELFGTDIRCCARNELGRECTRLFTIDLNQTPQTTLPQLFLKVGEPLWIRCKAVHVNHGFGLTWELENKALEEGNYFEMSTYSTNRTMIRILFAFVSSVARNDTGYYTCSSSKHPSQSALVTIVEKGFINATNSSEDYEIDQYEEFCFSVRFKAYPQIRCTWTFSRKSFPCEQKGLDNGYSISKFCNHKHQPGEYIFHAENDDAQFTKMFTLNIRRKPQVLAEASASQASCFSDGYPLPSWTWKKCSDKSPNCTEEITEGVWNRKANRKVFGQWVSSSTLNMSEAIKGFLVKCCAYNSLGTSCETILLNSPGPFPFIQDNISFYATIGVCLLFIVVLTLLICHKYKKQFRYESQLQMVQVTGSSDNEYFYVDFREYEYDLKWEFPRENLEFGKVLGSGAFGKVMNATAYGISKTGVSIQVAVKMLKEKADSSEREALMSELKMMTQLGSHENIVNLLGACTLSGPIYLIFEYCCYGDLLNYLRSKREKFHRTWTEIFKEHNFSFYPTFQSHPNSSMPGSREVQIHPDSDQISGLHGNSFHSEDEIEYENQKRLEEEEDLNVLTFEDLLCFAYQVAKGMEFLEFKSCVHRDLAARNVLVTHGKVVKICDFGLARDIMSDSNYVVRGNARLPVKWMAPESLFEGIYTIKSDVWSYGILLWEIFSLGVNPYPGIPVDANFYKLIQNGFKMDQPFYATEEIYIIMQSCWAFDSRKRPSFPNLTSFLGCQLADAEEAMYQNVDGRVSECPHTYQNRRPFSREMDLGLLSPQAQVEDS

Structure (SMILES)	kinase still bound, per cent of control [%]
CCN1CCN(Cc2ccc(NC(=O)c3ccc(C)c(/C=C/c4cnc(Nc5cc(N6CCNCC6)nc(C)n5)cn4)c3)cc2C(F)(F)F)CC1	3.8
CCOc1cc(N2CCC(N3CCCCC3)CC2)ccc1Nc1nc(Nc2ccccc2S(=O)(=O)C(C)C)c2cn[nH]c2n1	100
CCN1CCN(Cc2ccc(NC(=O)c3ccc(C)c(Oc4ccnc5[nH]ccc45)c3)cc2C(F)(F)F)CC1	0.15

biological target: LYN (human) (UniProt P07948); assay: KINOMEscan competition binding; conditions: compound 10.0 µM
Sequence (P07948 whole entry, looked up): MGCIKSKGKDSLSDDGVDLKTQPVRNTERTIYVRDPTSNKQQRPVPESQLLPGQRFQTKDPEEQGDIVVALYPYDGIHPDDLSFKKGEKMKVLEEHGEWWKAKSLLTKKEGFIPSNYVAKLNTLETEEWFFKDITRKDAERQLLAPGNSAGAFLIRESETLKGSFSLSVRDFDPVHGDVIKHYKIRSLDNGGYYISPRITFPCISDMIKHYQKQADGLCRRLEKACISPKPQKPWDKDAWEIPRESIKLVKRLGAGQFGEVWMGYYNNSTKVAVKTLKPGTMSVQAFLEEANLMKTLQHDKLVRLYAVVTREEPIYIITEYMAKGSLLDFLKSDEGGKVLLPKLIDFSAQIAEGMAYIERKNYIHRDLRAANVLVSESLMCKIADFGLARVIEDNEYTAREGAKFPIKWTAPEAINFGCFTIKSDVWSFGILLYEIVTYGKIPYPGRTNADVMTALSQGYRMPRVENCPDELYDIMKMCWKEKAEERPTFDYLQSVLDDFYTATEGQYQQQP

Structure (SMILES)	kinase still bound, per cent of control [%]
CCN1CCN(Cc2ccc(NC(=O)c3ccc(C)c(/C=C/c4cnc(Nc5cc(N6CCNCC6)nc(C)n5)cn4)c3)cc2C(F)(F)F)CC1	1
COc1cc(N2CCC(N3CCN(C)CC3)CC2)ccc1Nc1ncc(Cl)c(Nc2ccccc2S(=O)(=O)C(C)C)n1	5
CCOc1cc(N2CCC(N3CCCCC3)CC2)ccc1Nc1nc(Nc2ccccc2S(=O)(=O)C(C)C)c2cn[nH]c2n1	100
CCN1CCN(Cc2ccc(NC(=O)c3ccc(C)c(Oc4ccnc5[nH]ccc45)c3)cc2C(F)(F)F)CC1	0.75

biological target: RPS6KA3 KD1 (human) (UniProt P51812); assay: KINOMEscan competition binding; conditions: compound 10.0 µM

Structure (SMILES)	kinase still bound, per cent of control [%]
CCN1CCN(Cc2ccc(NC(=O)c3ccc(C)c(/C=C/c4cnc(Nc5cc(N6CCNCC6)nc(C)n5)cn4)c3)cc2C(F)(F)F)CC1	43
COc1cc(N2CCC(N3CCN(C)CC3)CC2)ccc1Nc1ncc(Cl)c(Nc2ccccc2S(=O)(=O)C(C)C)n1	0.55
CCOc1cc(N2CCC(N3CCCCC3)CC2)ccc1Nc1nc(Nc2ccccc2S(=O)(=O)C(C)C)c2cn[nH]c2n1	2

biological target: CAMK1G (human) (UniProt Q96NX5); assay: KINOMEscan competition binding; conditions: compound 10.0 µM
Sequence (Q96NX5 whole entry, looked up): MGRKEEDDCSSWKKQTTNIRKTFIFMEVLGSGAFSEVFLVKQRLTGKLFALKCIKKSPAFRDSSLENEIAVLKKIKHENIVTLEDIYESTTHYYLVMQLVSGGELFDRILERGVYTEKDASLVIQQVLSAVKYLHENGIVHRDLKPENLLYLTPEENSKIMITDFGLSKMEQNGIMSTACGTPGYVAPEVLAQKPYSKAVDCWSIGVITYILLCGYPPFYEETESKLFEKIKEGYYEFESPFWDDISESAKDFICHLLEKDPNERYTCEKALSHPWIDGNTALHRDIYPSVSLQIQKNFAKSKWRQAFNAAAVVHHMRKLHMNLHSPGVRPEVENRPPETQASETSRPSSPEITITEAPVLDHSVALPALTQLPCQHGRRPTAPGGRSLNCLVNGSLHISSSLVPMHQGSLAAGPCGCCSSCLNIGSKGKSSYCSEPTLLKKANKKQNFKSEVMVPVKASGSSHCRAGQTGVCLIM

Structure (SMILES)	kinase still bound, per cent of control [%]
CCN1CCN(Cc2ccc(NC(=O)c3ccc(C)c(/C=C/c4cnc(Nc5cc(N6CCNCC6)nc(C)n5)cn4)c3)cc2C(F)(F)F)CC1	99
CCOc1cc(N2CCC(N3CCCCC3)CC2)ccc1Nc1nc(Nc2ccccc2S(=O)(=O)C(C)C)c2cn[nH]c2n1	26
CCN1CCN(Cc2ccc(NC(=O)c3ccc(C)c(Oc4ccnc5[nH]ccc45)c3)cc2C(F)(F)F)CC1	20

biological target: ACVR1B (human) (UniProt P36896); assay: KINOMEscan competition binding; conditions: compound 10.0 µM

Structure (SMILES)	kinase still bound, per cent of control [%]
CCN1CCN(Cc2ccc(NC(=O)c3ccc(C)c(/C=C/c4cnc(Nc5cc(N6CCNCC6)nc(C)n5)cn4)c3)cc2C(F)(F)F)CC1	96
COc1cc(N2CCC(N3CCN(C)CC3)CC2)ccc1Nc1ncc(Cl)c(Nc2ccccc2S(=O)(=O)C(C)C)n1	0.05
CCOc1cc(N2CCC(N3CCCCC3)CC2)ccc1Nc1nc(Nc2ccccc2S(=O)(=O)C(C)C)c2cn[nH]c2n1	100

biological target: FGFR2 (human) (UniProt P21802); assay: KINOMEscan competition binding; conditions: compound 10.0 µM

Structure (SMILES)	kinase still bound, per cent of control [%]
CCN1CCN(Cc2ccc(NC(=O)c3ccc(C)c(/C=C/c4cnc(Nc5cc(N6CCNCC6)nc(C)n5)cn4)c3)cc2C(F)(F)F)CC1	10
COc1cc(N2CCC(N3CCN(C)CC3)CC2)ccc1Nc1ncc(Cl)c(Nc2ccccc2S(=O)(=O)C(C)C)n1	0.95
CCOc1cc(N2CCC(N3CCCCC3)CC2)ccc1Nc1nc(Nc2ccccc2S(=O)(=O)C(C)C)c2cn[nH]c2n1	100
CCN1CCN(Cc2ccc(NC(=O)c3ccc(C)c(Oc4ccnc5[nH]ccc45)c3)cc2C(F)(F)F)CC1	1.4

biological target: NTRK3 (human) (UniProt Q16288); assay: KINOMEscan competition binding; conditions: compound 10.0 µM
Sequence (Q16288 whole entry, looked up): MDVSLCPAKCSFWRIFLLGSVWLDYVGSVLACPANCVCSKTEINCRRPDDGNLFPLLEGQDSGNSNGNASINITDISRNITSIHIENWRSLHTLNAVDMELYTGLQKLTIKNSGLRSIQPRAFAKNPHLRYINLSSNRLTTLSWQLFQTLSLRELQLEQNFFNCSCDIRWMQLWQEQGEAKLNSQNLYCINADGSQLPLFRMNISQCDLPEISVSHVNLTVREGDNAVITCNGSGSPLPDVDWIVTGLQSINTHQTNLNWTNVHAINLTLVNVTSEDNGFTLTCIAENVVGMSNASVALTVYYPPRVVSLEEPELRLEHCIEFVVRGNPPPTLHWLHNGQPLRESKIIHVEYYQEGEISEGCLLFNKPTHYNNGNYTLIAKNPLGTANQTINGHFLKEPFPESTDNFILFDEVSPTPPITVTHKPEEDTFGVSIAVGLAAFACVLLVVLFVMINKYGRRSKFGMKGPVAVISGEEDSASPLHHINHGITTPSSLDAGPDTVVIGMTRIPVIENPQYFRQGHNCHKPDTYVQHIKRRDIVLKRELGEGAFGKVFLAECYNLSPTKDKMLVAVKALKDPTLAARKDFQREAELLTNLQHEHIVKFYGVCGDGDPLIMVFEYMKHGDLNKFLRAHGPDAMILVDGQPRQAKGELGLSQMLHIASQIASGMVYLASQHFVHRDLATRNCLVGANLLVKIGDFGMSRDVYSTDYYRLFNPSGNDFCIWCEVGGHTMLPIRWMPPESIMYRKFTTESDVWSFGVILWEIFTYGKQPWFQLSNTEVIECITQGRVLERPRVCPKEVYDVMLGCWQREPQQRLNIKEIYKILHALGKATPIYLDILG

Structure (SMILES)	kinase still bound, per cent of control [%]
CCN1CCN(Cc2ccc(NC(=O)c3ccc(C)c(/C=C/c4cnc(Nc5cc(N6CCNCC6)nc(C)n5)cn4)c3)cc2C(F)(F)F)CC1	1
COc1cc(N2CCC(N3CCN(C)CC3)CC2)ccc1Nc1ncc(Cl)c(Nc2ccccc2S(=O)(=O)C(C)C)n1	40
CCOc1cc(N2CCC(N3CCCCC3)CC2)ccc1Nc1nc(Nc2ccccc2S(=O)(=O)C(C)C)c2cn[nH]c2n1	54
CCN1CCN(Cc2ccc(NC(=O)c3ccc(C)c(Oc4ccnc5[nH]ccc45)c3)cc2C(F)(F)F)CC1	3.8
